Source: US20220280661A1, “GLUCOCORTICOID RECEPTOR RADIOLIGANDS AND METHODS FOR THEIR PREPARATION AND USE” (The Regents of the University of California, priority 2019, published 2022)
Read-outs that look alike come from different tables or passages of the source.

Legend:
[1] = molecular target: T1, ER (Homo sapiens, UniProt P03372); assay: 3H-ligand displacement assay on cells, ER (MCF7); format: binding
T1 construct: MCF7 (PR, ER); endogenous in cells; host or cells: MCF7
T1 sequence (P03372 1-595): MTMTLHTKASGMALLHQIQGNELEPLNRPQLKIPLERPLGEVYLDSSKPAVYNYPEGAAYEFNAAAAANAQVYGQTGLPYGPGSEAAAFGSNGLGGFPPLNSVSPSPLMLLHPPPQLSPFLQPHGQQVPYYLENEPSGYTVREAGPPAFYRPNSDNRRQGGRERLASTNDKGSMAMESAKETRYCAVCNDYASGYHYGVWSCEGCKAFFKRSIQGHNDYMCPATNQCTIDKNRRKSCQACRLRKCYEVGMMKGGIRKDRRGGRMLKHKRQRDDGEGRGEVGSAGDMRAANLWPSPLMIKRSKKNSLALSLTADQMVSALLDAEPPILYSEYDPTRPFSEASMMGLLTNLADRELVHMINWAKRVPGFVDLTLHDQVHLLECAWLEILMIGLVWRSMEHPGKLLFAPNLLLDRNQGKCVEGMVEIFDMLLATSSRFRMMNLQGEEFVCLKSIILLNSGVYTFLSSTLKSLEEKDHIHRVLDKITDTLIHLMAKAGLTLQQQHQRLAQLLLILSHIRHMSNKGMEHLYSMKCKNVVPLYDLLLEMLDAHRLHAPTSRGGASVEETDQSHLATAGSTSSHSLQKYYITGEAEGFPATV
Protocol: (§1) The affinity of YJH08 for GR and the other type 1 subfamily 3 nuclear hormone receptors was evaluated using ^3H-ligand displacement assays on cells. The Kd for subfamily 3 class C nuclear hormone receptors was determined on cells by displacing ^3H-steroidal agonists for the respective receptor. […] The Kd was determined using the following cell lines: DU145 (GR), LNCaP-AR (AR), MCF7 (PR, ER), and HEK293 transiently overexpressing full length human MR.
(§2) The cold ligands and ^3H-steroids were co-incubated on cells in PBS at room temperature for one hour. Following incubation, the cells were washed twice with ice cold PBS and the unbound activity was retained for analysis. The cells were lysed with 1 mL of 1M NaOH and collected. Bound and unbound fractions were counted in a liquid scintillation counter and expressed as a percentage of the total activity added per equal relative number of cells. […] These experiments were performed at three concentrations of experimental ligand (1 pM, 100 nM and 10 μM), and a linear extrapolation was used to subtract the non-specific component of binding from each treatment condition. The specific binding component was plotted against the log of the competing ligand and curve fit using a non-linear regression algorithm with PRISM software.

[2] = molecular target: T2, PR (Homo sapiens, UniProt P06401); assay: 3H-ligand displacement assay on cells, PR (MCF7); format: binding
T2 construct: MCF7 (PR, ER); endogenous in cells; host or cells: MCF7
T2 sequence (P06401 1-933): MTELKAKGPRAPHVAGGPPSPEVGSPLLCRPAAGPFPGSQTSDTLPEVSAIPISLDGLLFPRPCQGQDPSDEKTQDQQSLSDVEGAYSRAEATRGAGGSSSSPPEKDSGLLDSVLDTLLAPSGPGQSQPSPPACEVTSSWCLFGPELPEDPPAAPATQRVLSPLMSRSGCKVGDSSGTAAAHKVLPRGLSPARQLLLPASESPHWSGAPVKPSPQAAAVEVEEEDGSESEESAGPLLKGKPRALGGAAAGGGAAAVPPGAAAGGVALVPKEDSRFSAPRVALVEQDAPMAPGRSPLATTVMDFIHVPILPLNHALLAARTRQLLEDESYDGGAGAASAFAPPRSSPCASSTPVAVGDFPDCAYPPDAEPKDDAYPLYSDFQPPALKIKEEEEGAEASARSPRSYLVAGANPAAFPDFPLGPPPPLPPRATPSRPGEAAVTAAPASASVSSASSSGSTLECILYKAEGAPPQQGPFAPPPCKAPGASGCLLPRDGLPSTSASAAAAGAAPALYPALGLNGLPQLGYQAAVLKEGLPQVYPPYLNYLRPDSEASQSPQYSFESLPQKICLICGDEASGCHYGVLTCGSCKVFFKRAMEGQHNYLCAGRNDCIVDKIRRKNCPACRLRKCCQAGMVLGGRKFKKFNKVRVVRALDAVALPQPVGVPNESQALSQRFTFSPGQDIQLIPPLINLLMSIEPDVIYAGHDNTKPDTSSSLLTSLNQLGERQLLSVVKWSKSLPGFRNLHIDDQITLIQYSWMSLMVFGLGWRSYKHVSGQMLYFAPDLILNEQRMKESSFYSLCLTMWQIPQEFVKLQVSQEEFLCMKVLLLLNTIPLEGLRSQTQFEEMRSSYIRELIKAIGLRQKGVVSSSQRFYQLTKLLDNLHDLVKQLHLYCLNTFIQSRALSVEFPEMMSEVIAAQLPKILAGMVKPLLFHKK
Protocol: as §1, §2

[3] = Plasma protein binding, rapid equilibrium dialysis, mouse plasma; format: in vitro ADME; conditions: mouse, plasma, pH 7.4, mouse plasma
Protocol: (§3) Plasma Protein Binding Studies. The rapid equilibrium dialysis (RED) device inserts along with a Teflon base plate (Pierce, Rockford, Ill.) were used for the binding studies. The pH of the human or mouse plasma was adjusted to 7.4 prior to the experiment. DMSO stocks (1 mM) were spiked into the plasma to make a final concentration of 2 μM. The spiked plasma solutions (300 μL) were placed into the sample chamber (indicated by the red ring); and 500 μL of PBS buffer, pH 7.4, was placed into the adjacent chamber. The plate was incubated at 37° C. on an orbital shaker (250 rpm) for 4 hours.
(§4) After 4 hours, from the RED plate, aliquots (100 μL) were removed from each side of the insert (plasma and buffer) and dispensed into the 96-well plate. Subsequently, 100 μL of blank plasma was added to the buffer samples and 100 μL of blank buffer was added to all the collected plasma samples. 300 μL of quench solution (50% acetonitrile, 50% methanol, and 0.05% formic acid, warmed up at 37° C.) containing internal standards was added to each well. Plates were sealed, vortexed, and centrifuged at 4° C. for 15 minutes at 4000 rpm. The supernatant was transferred to fresh plates for LC/MS/MS analysis. The sample were analyzed on LC/MS/MS using an AB Sciex API 4000 instrument, coupled to a Shimadzu LC-20AD LC Pump system. Analytical samples were separated using a Waters Atlantis T3 dC18 reverse phase HPLC column (20 mm×2.1 mm) at a flow rate of 0.5 mL/min. The mobile phase consisted of 0.1% formic acid in water (solvent A) and 0.1% formic acid in acetonitrile (solvent B).
(§5) The percentage of test compound bound to protein was calculated by the following equations:
(§6) % Free=(Concentration in buffer chamber/Concentration in plasma chamber)×100%

[4] = tested on: plasma protein; assay: as above; format: in vitro ADME; conditions: plasma (rapid equilibrium dialysis device), pH 7.4, mouse plasma
Protocol: as §3, §4, §5, §6

SMILES: COc1cccc2c1-c1ccc3c(c1C(Cc1ccc(F)cc1)O2)C(C)=CC(C)(C)N3 (racemic) [YJH08, 5-(4-fluorobenzyl)-10-methoxy-2,2,4-trimethyl-2,5-dihydro-1H-chromeno[3,4-f]quinoline]
- Kd [1]: 19 µM
- Kd [2]: 0.555 µM
- fraction unbound at 4 h, 2 μM ([3]; duplicate, read-out: % Bound (converted)): < 0.0001
- fraction unbound at 4 h, 2 μM ([3]; read-out: % Bound Average (converted)): < 0.0001
- recovery at 4 h, 2 μM [4]: 100%
